In general, inhibition refers to the percentage by which the read-out fell short of the control. One may read the IC50 as the concentration that gives 50% inhibition.

Common to all, as to assay type: cell-based
The target of one data set is hERG (Homo sapiens (Human), UniProt Q12809). Put plainly: hERG Manual Patch Clamp Assay. The conditions noted are these: for inhibition at 1 µM / inhibition at 3 µM / inhibition at 10 µM: human, HEK 293 cells stably expressing hERG channels; for inhibition at 1 µM: pH 7.4, 1 μM, read-out: hERG EP IC50 (% Inhibition at 1 μM); for inhibition at 3 µM: pH 7.4, 3 uM, read-out: hERG EP % Inhibition at 3 uM; for inhibition at 10 µM: pH 7.4, 10 uM, read-out: hERG EP % Inhibition at 10 uM. On the procedure:
hERG Manual Patch Clamp Assay
hERG electrophysiology assay: The experimental compounds were assessed for hERG activity on HEK 293 cells stably expressing hERG channels using patch clamp technique. Coverslips plated with hERG expressing cells were placed in the experimental chamber and were perfused with a solution composed of (in mM): 140 NaCl, 4 KCl, 1.8 CaCl2, 1 MgCl2, 10 Glucose, 10 HEPES (pH 7.4, NaOH) at room temperature. Borosilicate patch pipettes had tip resistances of 2-4 Mohms when filled with an internal solution containing: 130 KCl, 1 MgCl2, 1 CaCl2, 10 EGTA, 10 HEPES, 5 ATP-K2 (pH 7.2, KOH). The cells were clamped at −80 mV in whole cell configuration using an Axopatch 200B (Axon instruments, Union City, Calif.) patch clamp amplifier controlled by pClamp (Axon instruments) software. Upon formation of a gigaseal, the following voltage protocol was repeatedly (0.05 Hz) applied to record tail currents: depolarization step from −80 mV to +20 mV for 2 seconds followed by a hyperpolarization step to −65 mV (3 seconds) to elicit tail currents. Compounds were applied after stabilization of tail current. First, tail currents were recorded in presence of extracellular solution alone (control) and subsequently, in extracellular solution containing increasing compound concentrations. Each compound concentration was applied for 2-5 minutes. The percentage inhibition at each concentration was calculated as reduction in peak tail current with respect to the peak tail current recorded in the presence of control solution. Data analysis was performed in a custom made template. The percent inhibitions at different concentrations were plotted to obtain a concentration response curve, which was subsequently fitted with a four parameter equation to calculate hERG IC50 value.
A lower hERG % Inhibition value indicates less inhibition of the hERG current
In general terms: The hERG channel carries a current that helps repolarise heart muscle cells.

For the next data set, the target named is hROMK (Homo sapiens (Human), UniProt P48048). In words: ROMK Manual Patch Clamp Assay. The conditions noted are these: whole-cell manual patch clamp, hROMK expressing cells; read-out: hROMK EP IC50. On the procedure: ROMK Manual Patch Clamp Assay
Chain of hROMK (P48048 whole entry): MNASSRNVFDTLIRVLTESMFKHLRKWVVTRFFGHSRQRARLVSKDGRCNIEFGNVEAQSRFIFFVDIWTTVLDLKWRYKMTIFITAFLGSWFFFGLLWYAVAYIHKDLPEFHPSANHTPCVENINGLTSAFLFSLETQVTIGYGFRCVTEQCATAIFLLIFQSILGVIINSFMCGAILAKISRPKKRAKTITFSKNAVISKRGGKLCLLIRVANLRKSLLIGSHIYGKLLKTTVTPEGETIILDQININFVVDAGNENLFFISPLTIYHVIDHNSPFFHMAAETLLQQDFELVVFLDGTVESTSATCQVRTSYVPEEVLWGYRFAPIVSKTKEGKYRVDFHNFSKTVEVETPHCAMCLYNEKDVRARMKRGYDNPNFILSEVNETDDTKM
Cell culture conditions: Cells were maintained in conditions similar to those for Thallium flux assay. hROMK channel expression was induced by adding 0.6 μg/ml of Doxycycline 16-24 hrs prior to the experiments. On the day of experiment, the cells were dissociated using Versene, resuspended in growth media and plated onto coverslips 15 minutes prior to use.
Electrophysiology: The coverslip plated with cells was placed in the experiment chamber perfused with bath solution composed of (in mM): 135 NaCl, 5 KCl, 2 CaCl2, 1 MgCl2, 10 HEPES, 5 Glucose (pH 7.4). Patch pipettes with resistance between 2-5 Megaohms, when filled with a solution containing (in mM): 135 KCl, 1 EGTA, 1 MgCl2, 10 HEPES, 2 Na2ATP (pH 7.3), were used to form gigaseals. The cells were voltage clamped at −75 mV in whole-cell configuration using an Axopatch 200b or Multiclamp 700b (Molecular Devices) amplifier controlled by pClamp Software (Molecular Devices). The current was recorded by applying a voltage step to −120 mV every 10 seconds. For each compound, 4-6 concentrations were applied for 3-8 minutes in a successive manner starting with the lowest concentration. At the end of the experiment, the cells were perfused with bath solution containing 2 mM Ba^2+ to isolate the contribution of hROMK current.
Data analysis: Raw current values (5 traces each for control, different compound concentration and Ba^2+ treatment groups) were exported from Clampfit into Microsoft Excel where the current remaining after application of Ba^2+ was subtracted from raw current to obtain hROMK specific current. These hROMK current values (average of 5 traces for each group) were then imported into a custom made template to generate a concentration response curve, which was subsequently fitted with a four parameter equation to calculate the IC50 value of the test compound.
The data in Table 4 is reported with two significant figures.
For orientation: The patch-clamp technique gives a direct electrical read-out from membranes.

A further data set concerns the target hROMK (human Kir1.1) (Homo sapiens (Human), UniProt P48048). In words: Thallium Flux Assay. Particulars: CHO T-Rex hROMK stable cell line, 10-point concentration response; read-out: hROMK Th+ Flux IC50. The method in brief:
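CHO T-Rex cells, doxycycline-induced (0.5 μg/ml) one day before, FluxOR dye-loaded; compounds 30 min, then Tl+ stimulus (final 3 mM Tl2SO4, 0.15 mM K2SO4) with ouabain in chloride-free buffer. Fluorescence 488/525 nm for 90 s; IC50 from 10-point curve; DMSO 0.5 or 1%.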

Chain of hROMK (human Kir1.1) (P48048 whole entry): as above
Chain of hERG (Q12809 whole entry): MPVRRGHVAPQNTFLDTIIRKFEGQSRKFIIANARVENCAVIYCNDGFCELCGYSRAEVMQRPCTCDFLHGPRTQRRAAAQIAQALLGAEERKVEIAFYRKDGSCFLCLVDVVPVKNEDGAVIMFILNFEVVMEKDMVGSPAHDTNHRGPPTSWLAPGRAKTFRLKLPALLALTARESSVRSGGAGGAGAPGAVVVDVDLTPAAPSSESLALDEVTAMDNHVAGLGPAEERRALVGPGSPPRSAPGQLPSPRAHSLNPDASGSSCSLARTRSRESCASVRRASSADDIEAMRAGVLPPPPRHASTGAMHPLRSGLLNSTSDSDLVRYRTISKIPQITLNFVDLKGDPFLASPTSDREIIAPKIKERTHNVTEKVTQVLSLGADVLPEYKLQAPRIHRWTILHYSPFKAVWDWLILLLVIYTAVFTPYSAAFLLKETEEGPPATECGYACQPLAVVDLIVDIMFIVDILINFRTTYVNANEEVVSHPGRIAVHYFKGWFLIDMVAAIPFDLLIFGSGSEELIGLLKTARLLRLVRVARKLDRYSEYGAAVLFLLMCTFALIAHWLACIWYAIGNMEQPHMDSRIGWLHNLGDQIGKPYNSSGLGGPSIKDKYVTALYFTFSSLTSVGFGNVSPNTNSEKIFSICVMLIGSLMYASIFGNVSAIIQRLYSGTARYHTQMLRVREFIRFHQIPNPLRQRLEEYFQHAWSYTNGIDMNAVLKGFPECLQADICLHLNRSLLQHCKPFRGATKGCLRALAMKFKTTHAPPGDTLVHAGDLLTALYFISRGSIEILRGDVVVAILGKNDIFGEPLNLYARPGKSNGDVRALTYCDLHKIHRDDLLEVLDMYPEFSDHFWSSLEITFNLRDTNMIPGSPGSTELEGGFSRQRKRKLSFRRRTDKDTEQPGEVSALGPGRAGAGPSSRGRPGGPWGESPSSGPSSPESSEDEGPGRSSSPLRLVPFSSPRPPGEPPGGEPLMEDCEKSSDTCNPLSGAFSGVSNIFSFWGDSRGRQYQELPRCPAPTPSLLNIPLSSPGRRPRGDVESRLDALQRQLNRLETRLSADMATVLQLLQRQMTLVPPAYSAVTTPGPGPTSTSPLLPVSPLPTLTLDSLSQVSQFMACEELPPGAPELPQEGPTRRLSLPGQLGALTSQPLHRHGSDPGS

As to `Cc1c(C(O)CN2CCc3nc(-n4cc(C#N)cn4)ncc3C2)ccc2c1COC2=O` (single isomer, unassigned) [Example 56-I, 1-(6-(2-hydroxy-2-(4-methyl-1-oxo-1,3-dihydroisobenzofuran-5-yl)ethyl)-5,6,7,8-tetrahydropyrido[4,3-d]pyrimidin-2-yl)-1H-pyrazole-4-carbonitrile], on hERG, the inhibition at 1 µM is 35%, the inhibition at 3 µM came out at 65% and the inhibition at 10 µM came out at 82%. For the same compound, the IC50 on hROMK worked out at 0.012 µM. The IC50 on hROMK (human Kir1.1) is 0.044 µM.
For `Cc1c(C(O)CN2CCc3nc(-n4cnc5ncccc54)ncc3C2)ccc2c1COC2=O` (single isomer, unassigned) [Example 53-I, 5-(2-(2-(1H-imidazo[4,5-b]pyridin-1-yl)-7,8-dihydropyrido[4,3-d]pyrimidin-6(5H)-yl)-1-hydroxyethyl)-4-methylisobenzofuran-1(3H)-one], on hERG, the inhibition at 1 µM turned out to be 13% and the inhibition at 3 µM was found to be 34%. For the same compound, at hROMK, the IC50 worked out at 0.087 µM. Also, at hROMK (human Kir1.1), the IC50 came out at 0.135 µM.
Turning to `Cc1c(C(O)CN2CCc3nc(-n4ccc5c(C#N)cncc54)ncc3C2)ccc2c1COC2=O` (single isomer, unassigned) [Example 42-I, 1-(6-(2-hydroxy-2-(4-methyl-1-oxo-1,3-dihydroisobenzofuran-5-yl)ethyl)-5,6,7,8-tetrahydropyrido[4,3-d]pyrimidin-2-yl)-1H-pyrrolo[2,3-c]pyridine-4-carbonitrile], at hERG, the inhibition at 1 µM was 41%. The values for the IC50 on hROMK and at hROMK (human Kir1.1) were 0.034 µM and 0.07 µM, respectively.
Regarding `Cc1cn(-c2ncc3c(n2)CCN(CC(O)c2ccc4c(c2C)COC4=O)C3)cn1` (single isomer, unassigned) [Example 58-I, 5-(1-hydroxy-2-(2-(4-methyl-1H-imidazol-1-yl)-7,8-dihydropyrido[4,3-d]pyrimidin-6(5H)-yl)ethyl)-4-methyl isobenzofuran-1(3H)-one], at hERG, the inhibition at 1 µM turned out to be 9%, the inhibition at 3 µM came out at 20% and the inhibition at 10 µM amounted to 42%. For the same compound, at hROMK, the IC50 was determined as 0.013 µM. Further, the IC50 at hROMK (human Kir1.1) worked out at 0.062 µM.
The like results for `Cc1c(C(O)CN2CCc3nc(-n4cc(C#N)c5ncccc54)ncc3C2)ccc2c1COC2=O` (single isomer, unassigned) [Example 68-I, 1-(6-(2-hydroxy-2-(4-methyl-1-oxo-1,3-dihydroisobenzofuran-5-yl)ethyl)-5,6,7,8-tetrahydropyrido[4,3-d]pyrimidin-2-yl)-1H-pyrrolo[3,2-b]pyridine-3-carbonitrile] were, in that order, 22%, 54%, 86%, 0.023 µM and 0.029 µM.
On to `Cc1c(C(O)CN2CCc3nc(-n4ncc5ncccc54)ncc3C2)ccc2c1COC2=O` (single isomer, unassigned) [Example 41-I, 5-(2-(2-(1H-pyrazolo[4,3-b]pyridin-1-yl)-7,8-dihydropyrido[4,3-d]pyrimidin-6(5H)-yl)-1-hydroxyethyl)-4-methylisobenzofuran-1(3H)-one], for which the inhibition at 1 µM at hERG came out at 11%. Also, the IC50 at hROMK is 0.023 µM; on hROMK (human Kir1.1), 0.06 µM.
In the case of `Cc1c(C(O)CN2CCc3nc(-n4ccnc4)ncc3C2)ccc2c1COC2=O` (single isomer, unassigned) [Example 66-I, 5-(2-(2-(1H-imidazol-1-yl)-7,8-dihydro-pyrido[4,3-d]pyrimidin-6(5H)-yl)-1-hydroxyethyl)-4-methylisobenzofuran-1(3H)-one], on hERG, the inhibition at 1 µM was determined as 6%, the inhibition at 3 µM stood at 14% and the inhibition at 10 µM came out at 30%. Moreover, the IC50 at hROMK (human Kir1.1) turned out to be 0.362 µM.
Consider `Cc1c(C(O)CN2CCc3nc(-n4ccc5cc(C#N)ccc54)ncc3C2)ccc2c1COC2=O` (single isomer, unassigned) [Example 16-I, 1-(6-(2-hydroxy-2-(4-methyl-1-oxo-1,3-dihydroisobenzofuran-5-yl)ethyl)-5,6,7,8-tetrahydropyrido[4,3-d]pyrimidin-2-yl)-1H-indole-5-carbonitrile], for which the inhibition at 1 µM on hERG is 25%. Further, the IC50 on hROMK (human Kir1.1) amounted to 0.38 µM.
As for `Cc1c(C(O)CN2CCc3cc(Nc4ccc(C#N)c(F)c4)ccc3C2)ccc2c1COC2=O` (single isomer, unassigned) [Example 32-II, 2-fluoro-4-((2-(2-hydroxy-2-(4-methyl-1-oxo-1,3-dihydroisobenzofuran-5-yl)ethyl)-1,2,3,4-tetrahydroisoquinolin-6-yl)amino) benzonitrile], the “hERG EP IC50 (% Inhibition at 1 μM)” value on hERG (1 μM, HEK 293 cells stably expressing hERG) stood at 97% @1 μM. Also, the IC50 on hROMK (human Kir1.1) worked out at 0.083 µM.
In the case of `Cc1c(C(O)CN2CCc3nc(N4CCc5c(C#N)cccc54)ncc3C2)ccc2c1COC2=O` (single isomer, unassigned) [Example 65-I, 1-(6-(2-hydroxy-2-(4-methyl-1-oxo-1,3-dihydroisobenzofuran-5-yl)ethyl)-5,6,7,8-tetrahydropyrido[4,3-d]pyrimidin-2-yl)indoline-4-carbonitrile], the inhibition at 1 µM at hERG is 56%. Further, the IC50 on hROMK (human Kir1.1) was determined as 0.031 µM.
On to `Cc1c(C(O)CN2CCc3cc(Nc4ccc(C#N)c(F)c4)ccc3C2)ccc2c1COC2=O` (single isomer, unassigned) [Example 32-I, 2-fluoro-4-((2-(2-hydroxy-2-(4-methyl-1-oxo-1,3-dihydroisobenzofuran-5-yl)ethyl)-1,2,3,4-tetrahydroisoquinolin-6-yl)amino) benzonitrile], for which, on hERG, the inhibition at 1 µM is 100%. In addition, the IC50 on hROMK (human Kir1.1) amounted to 0.05 µM.
For the compound `N#Cc1ccc(Nc2ccc3c(c2)CCN(Cc2ccc4c(c2)COC4=O)C3)cc1F` [Example 4, 2-fluoro-4-((2-((1-oxo-1,3-dihydroisobenzofuran-5-yl)methyl)-1,2,3,4-tetrahydroisoquinolin-6-yl)amino)benzonitrile], the inhibition at 1 µM at hERG was found to be 94%. In addition, the IC50 at hROMK is 0.031 µM; at hROMK (human Kir1.1) it was 0.029 µM.
Consider `Cc1c(C(O)CN2CCc3nc(-n4ccc5c(C#N)cccc54)ncc3C2)ccc2c1COC2=O` (single isomer, unassigned) [Example 1-I, 1-(6-(2-hydroxy-2-(4-methyl-1-oxo-1,3-dihydroisobenzofuran-5-yl)ethyl)-5,6,7,8-tetrahydropyrido[4,3-d]pyrimidin-2-yl)-1H-indole-4-carbonitrile], for which, at hERG, the inhibition at 1 µM is 78%. The IC50 at hROMK (human Kir1.1) amounted to 0.054 µM.

The values are drawn from US10851108B2, “Substituted bicyclic heterocyclic compounds” (BRISTOL-MYERS SQUIBB COMPANY, priority 2016, dated 2020).
